According to patent US8329739B2, “Phenylimidazole compounds” (Otsuka Pharmaceutical Factory, Inc., priority 2009, dated 2012):

Experiments:
LPL (lipoprotein lipase) = target: T1, LPL (lipoprotein lipase) (Mus musculus, UniProt P11152); assay: Confirmation test of LPL activation effect in mouse skeletal muscle cells (C2C12 cells); type: cell-based; conditions: 8 hours exposure, vs control group
T1 construct: endogenous in cells; host or cells: C2C12 cells, differentiated
T1 sequence (P11152 28-474): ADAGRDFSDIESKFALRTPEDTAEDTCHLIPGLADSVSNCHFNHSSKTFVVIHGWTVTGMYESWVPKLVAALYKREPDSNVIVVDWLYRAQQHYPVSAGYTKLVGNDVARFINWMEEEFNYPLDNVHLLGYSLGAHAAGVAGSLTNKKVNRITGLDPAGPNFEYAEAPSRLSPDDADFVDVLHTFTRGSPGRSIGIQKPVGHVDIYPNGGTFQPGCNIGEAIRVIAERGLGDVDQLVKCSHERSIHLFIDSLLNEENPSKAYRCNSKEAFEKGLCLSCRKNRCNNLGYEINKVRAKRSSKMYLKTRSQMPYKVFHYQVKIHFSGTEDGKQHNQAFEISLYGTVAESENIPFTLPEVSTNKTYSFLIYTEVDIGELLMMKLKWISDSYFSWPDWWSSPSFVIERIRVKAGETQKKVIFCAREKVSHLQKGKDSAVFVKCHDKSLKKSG
Protocol: Human skeletal muscle cells (human skeletal muscle myoblasts) or mouse skeletal muscle cells (C2C12 cells) that were seeded onto plates, cultured, and differentiated were exposed to a 0.3% dimethyl sulfoxide-containing culture medium in which the compound of the present invention was dissolved (concentration: 10 μM or 30 μM). The medium was removed 8 hours after exposure, 10 mM of Tris-HCl buffer (150 mM NaCl, 10 μ/mL; containing heparin sodium) was added to the cells, and the cells were incubated at 37° C. in the presence of 5% CO2 for 10 minutes. LPL activity in the supernatant was measured using an LPL activity assay kit (made by Roar Biomedical Inc.). LPL activity was evaluated based on the increase in fluorescence intensity 10 to 70 minutes after mixing the supernatant with the LPL substrate. The mean value of the increase in fluorescence intensity of the cells exposed to a 0.3% dimethyl sulfoxide-containing culture medium […] was used as mean value of the control group. Note that the compounds of Examples 18, 19, 32, 45 and 57 were tested using human skeletal muscle cells, and other compounds were tested using mouse skeletal muscle cells. The rate of increase (%) was calculated from the measured values of LPL activity in the control group and the experimental group, according to the following formula. Rate of increase in LPL activity (%)=[(mean value of the experimental group)−(mean value of the control group)]/(mean value of the control group)×100

Structure (SMILES) | melting point | Rate of increase in LPL activity (LPL (lipoprotein lipase); amount of addition 10 μM) | Rate of increase in LPL activity (LPL (lipoprotein lipase); amount of addition 30 μM)
COc1cc(OCc2ccc(Br)cc2F)ccc1-c1c[nH]c(-c2cc(Cl)cc(Cl)c2)n1 [Example 91] | 260 to 265 °C | 28% | 95%
COc1cc(OCc2ccc(Cl)cc2)ccc1-c1c[nH]c(-c2ccccc2)n1.Cl [Example 10] | 244 to 246 °C | 46% | 275%
COc1cc(-c2c[nH]c(-c3ccsc3)n2)ccc1OCc1cccc(C#N)c1.Cl [Example 72] | 224 to 227 °C | 70% | 123%
COc1cc(OCc2ccc(Br)cc2F)ccc1-c1c[nH]c(-c2ccc(C(=O)O)cc2)n1.Cl [Example 94] | > 250 °C | 9% | 15%
COc1cc(OCc2ccc(Cl)cc2)ccc1-c1c[nH]c(-c2ccc(Cl)c(Cl)c2)n1 [Example 110] | 145 to 148 °C | 37% | 106%
COc1cc(OCc2ccc(Br)cc2F)ccc1-c1c[nH]c(-c2cccc(Cl)c2)n1.Cl [Example 88] | 231 to 236 °C | 12% | 98%
COc1cc(-c2c[nH]c(-c3ccc(F)cc3)n2)ccc1OCc1ccccc1 [Example 36] | 214 to 216 °C | 6% | 113%
COc1cccc(-c2nc(-c3ccc(OCc4ccc(Cl)cc4F)cc3OC)c[nH]2)c1.Cl [Example 134] | 245 to 249 °C | 32% | 308%
COc1cc(-c2c[nH]c(-c3ccc(F)c(F)c3)n2)ccc1OCc1ccccc1.Cl [Example 47] | 226 to 227 °C | 38% | 120%
COc1cc(-c2c[nH]c(-c3cccc(C(F)(F)F)c3)n2)ccc1OCc1ccc(C#N)cc1.Cl [Example 75] | 231 to 232 °C | 43% | 89%
COc1cc(OCc2ccc(Br)cc2F)ccc1-c1c[nH]c(-c2ccccc2C(F)(F)F)n1.Cl [Example 81] | 224 to 228 °C | 32% | 89%
COc1cc(OCc2ccccc2)ccc1-c1c[nH]c(-c2ccc(C(F)(F)F)cc2)n1 [Example 13] | 231 to 232 °C | 46% | 234%
COc1ccc(-c2nc(-c3ccc(OCc4ccc(Cl)cc4)cc3OC)c[nH]2)cc1 [Example 104] | 170 to 173 °C | 74% | 365%
COc1cc(-c2c[nH]c(-c3cccs3)n2)ccc1OCc1ccc(Cl)cc1 [Example 31] | 197 to 200 °C | 10% | 38%
COc1ccc(-c2nc(-c3ccc(OCc4ccc(Br)cc4F)cc3OC)c[nH]2)cc1.Cl [Example 86] | > 250 °C | 40% | 375%
COc1cc(OCc2ccc(C#N)cc2)ccc1-c1c[nH]c(-c2ccc(C(C)(C)C)cc2)n1 [Example 116] | 177 to 184 °C | 36% | 84%
COc1cc(-c2nc(-c3ccc(F)cc3)[nH]c2C)ccc1OCc1ccccc1 [Example 49] | 214 to 218 °C | 47% | 147%
COc1cc(-c2c[nH]c(-c3cc(Cl)cc(Cl)c3)n2)ccc1OCc1ccc(Cl)cc1 [Example 33] | 142 to 145 °C | 60% | 84%

Structure (SMILES) | melting point | Rate of increase in LPL activity (LPL (lipoprotein lipase); amount of addition 10 μM) | Rate of increase in LPL activity (LPL (lipoprotein lipase); amount of addition 30 μM)
COc1cc(OCc2ccc(Cl)cc2)ccc1-c1c[nH]c(-c2ccc(F)c(F)c2)n1 [Example 112] | 252 to 257 °C | 58% | 199%
COc1cc(OCc2ccc(C#N)cc2)ccc1-c1c[nH]c(-c2ccc(C)cc2)n1 [Example 85] | 195 to 198 °C | 10% | 99%
COc1cc(-c2c[nH]c(-c3cccc(F)c3)n2)ccc1OCc1ccccc1.Cl [Example 46] | 212 to 215 °C | 49% | 88%
COc1cc(-c2c[nH]c(-c3ccc(C(F)(F)F)cc3)n2)ccc1OCc1ccc(C#N)cc1 [Example 55] | 231 to 233 °C | 49% | 94%
COc1cc(OCc2ccc(C#N)cc2)ccc1-c1c[nH]c(-c2ccc(Cl)cc2)n1 [Example 76] | 186 to 187 °C | 115% | 263%
COc1ccc(-c2nc(-c3ccc(OCc4ccc(Br)cc4F)cc3OC)c[nH]2)cc1OC.Cl [Example 93] | 255 to 256 °C | 36% | 174%
COc1cc(-c2c[nH]c(-c3cccc(F)c3)n2)ccc1OCc1ccc(C#N)cc1 [Example 59] | 205 to 209 °C | 22% | 73%
COc1cc(OCc2ccc(Cl)cc2)ccc1-c1c[nH]c(-c2cccc(Cl)c2)n1.Cl [Example 113] | 223 to 226 °C | 4% | 123%
COc1cc(-c2c[nH]c(-c3cccc(F)c3)n2)ccc1OCc1ccc(Cl)cc1.Cl [Example 79] | 235 to 237 °C | 16% | 64%
COc1cc(-c2c[nH]c(-c3ccc(Cl)cc3)n2)ccc1OCc1ccccc1 [Example 4] | 228 to 229 °C | 31% | 45%
COC(=O)c1ccc(-c2nc(-c3ccc(OCc4ccc(Br)cc4F)cc3OC)c[nH]2)cc1 [Example 92] | 158 to 159 °C | 42% | 123%
COc1cc(OCc2ccc(Br)cc2F)ccc1-c1c[nH]c(-c2ccc(F)c(Cl)c2)n1 [Example 103] | 237 to 243 °C | 30% | 92%
COc1cc(OCc2ccc(Cl)cc2F)ccc1-c1c[nH]c(-c2ccc(C(F)(F)F)cc2)n1 [Example 132] | 165 to 166 °C | 35% | 213%
COC(=O)c1ccc(-c2nc(-c3ccc(OCc4ccccc4)c(OC)c3)c[nH]2)cc1.Cl [Example 38] | 222 to 227 °C | 35% | 100%
COc1cc(OCc2ccc(C#N)cc2)ccc1-c1c[nH]c(-c2ccc(Cl)c(Cl)c2)n1 [Example 111] | 137 to 140 °C | 61% | 81%
COc1cc(OCc2ccc(Cl)cc2F)ccc1-c1c[nH]c(-c2ccccc2)n1.Cl [Example 139] | 249 to 251 °C | 71% | 128%
COc1cc(-c2c[nH]c(-c3ccsc3)n2)ccc1OCc1ccc(C#N)cc1 [Example 66] | 176 to 180 °C | 24% | 32%
COc1cc(OCc2ccc(C#N)cc2)ccc1-c1c[nH]c(-c2ccc(F)c(F)c2)n1 [Example 96] | 173 to 176 °C | 27% | 96%
